Values of other authors, collected in patent US20070275871A1 (BIOREXIS TECHNOLOGY, INC., priority 2003, published 2007).
Like-named read-outs stand apart in the source and are kept apart here. Each block holds one sequence with its values, some of them ahead of it.

Key:
[1] = biological target: T1, extracellular domain of EPO receptor (Homo sapiens, UniProt P19235)
T1 sequence (P19235 25-250 limits assumed): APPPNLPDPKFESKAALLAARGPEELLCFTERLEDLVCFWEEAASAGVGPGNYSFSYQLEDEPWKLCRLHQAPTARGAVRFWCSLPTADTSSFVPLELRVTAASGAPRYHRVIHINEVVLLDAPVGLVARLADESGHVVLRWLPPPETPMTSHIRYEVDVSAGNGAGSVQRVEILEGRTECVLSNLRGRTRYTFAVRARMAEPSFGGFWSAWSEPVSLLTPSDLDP

[2] = test system: EPO responsive cells
[3] = test system: nascent red blood cell production; conditions: mice, two different in vivo assays of nascent red blood cell production
[4] = test system: cell lines engineered to be responsive to EPO
[5] = biological target: T2, EPO receptor (Homo sapiens, UniProt P19235)
T2 sequence (P19235 25-508): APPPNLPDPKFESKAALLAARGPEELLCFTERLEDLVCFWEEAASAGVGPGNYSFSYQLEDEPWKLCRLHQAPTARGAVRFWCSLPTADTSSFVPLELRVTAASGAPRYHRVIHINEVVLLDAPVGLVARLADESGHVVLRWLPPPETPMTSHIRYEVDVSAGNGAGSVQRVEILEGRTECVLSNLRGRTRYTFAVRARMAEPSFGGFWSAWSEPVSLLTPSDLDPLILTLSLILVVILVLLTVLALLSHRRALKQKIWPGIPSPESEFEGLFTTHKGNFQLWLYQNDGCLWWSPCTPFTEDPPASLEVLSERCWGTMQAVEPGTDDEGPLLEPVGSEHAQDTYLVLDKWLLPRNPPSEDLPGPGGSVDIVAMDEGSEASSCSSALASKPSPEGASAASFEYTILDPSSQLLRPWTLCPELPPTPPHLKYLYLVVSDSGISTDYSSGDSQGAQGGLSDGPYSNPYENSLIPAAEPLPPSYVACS

[6] = biological target: T2, EPO receptor; conditions: N- and C-terminal deletions of EMP-1

Sequence: CRIGPITWVC
Kd ([1]; EPO domain-weak-binding consensus sequence, read-out: Kd): 10 mM

Kd ([1]; read-out: affinity (Kd)): 0.0002 mM
competition with EPO in receptor binding assays [5]: competes with EPO
Sequence: GGTYSCHFGPLTWVCKPQGG [EMP-1]
cascade of phosphorylation events and cell cycle progression [2]: induce a similar cascade of phosphorylation events and cell cycle progression
erythropoietic effects [3]: significant erythropoietic effects
cellular proliferation [4]: cause cellular proliferation

activity in the assays for EPO mimetic action [6]: minimal active peptide
Sequence: YSCHFGPLTWVCK [EMP-20]
